In patent US20150031668A1, “CHROMAN DERIVATIVES AS TRPM8 INHIBITORS” (AMGEN INC., priority 2013, published 2015):
Structures can show the parent of a compound that is named as a salt. Where two headings read alike, the source gives them in different places.

Target: T1, human TRPM8 (Homo sapiens, UniProt Q7Z2W7)
T1 construct: expressed in transfected cells; host or cells: Chinese hamster ovary (CHO) cells, T-REx tetracycline-inducible expression system (Invitrogen); co-transfected with pcDNA3.1 aequorin
Experiment: Luminescence readout assay for measuring intracellular calcium (aequorin, CHO cells expressing human TRPM8; icilin, L-menthol or cold activation)
Type: cell-based
Summary of the method: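 Activation was by 1 μM icilin, 100 μM L-menthol (test compound 2.5 min ahead) or cold buffer below 10° C (compound 1 min ahead). Calcium rise measured as aequorin luminescence in CHO cells with tetracycline-inducible human TRPM8.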

[1] = CHO cells expressing human TRPM8, icilin activation (1 μM), aequorin luminescence, read-out: hTRPM8 IC50

T1 sequence (Q7Z2W7 whole entry): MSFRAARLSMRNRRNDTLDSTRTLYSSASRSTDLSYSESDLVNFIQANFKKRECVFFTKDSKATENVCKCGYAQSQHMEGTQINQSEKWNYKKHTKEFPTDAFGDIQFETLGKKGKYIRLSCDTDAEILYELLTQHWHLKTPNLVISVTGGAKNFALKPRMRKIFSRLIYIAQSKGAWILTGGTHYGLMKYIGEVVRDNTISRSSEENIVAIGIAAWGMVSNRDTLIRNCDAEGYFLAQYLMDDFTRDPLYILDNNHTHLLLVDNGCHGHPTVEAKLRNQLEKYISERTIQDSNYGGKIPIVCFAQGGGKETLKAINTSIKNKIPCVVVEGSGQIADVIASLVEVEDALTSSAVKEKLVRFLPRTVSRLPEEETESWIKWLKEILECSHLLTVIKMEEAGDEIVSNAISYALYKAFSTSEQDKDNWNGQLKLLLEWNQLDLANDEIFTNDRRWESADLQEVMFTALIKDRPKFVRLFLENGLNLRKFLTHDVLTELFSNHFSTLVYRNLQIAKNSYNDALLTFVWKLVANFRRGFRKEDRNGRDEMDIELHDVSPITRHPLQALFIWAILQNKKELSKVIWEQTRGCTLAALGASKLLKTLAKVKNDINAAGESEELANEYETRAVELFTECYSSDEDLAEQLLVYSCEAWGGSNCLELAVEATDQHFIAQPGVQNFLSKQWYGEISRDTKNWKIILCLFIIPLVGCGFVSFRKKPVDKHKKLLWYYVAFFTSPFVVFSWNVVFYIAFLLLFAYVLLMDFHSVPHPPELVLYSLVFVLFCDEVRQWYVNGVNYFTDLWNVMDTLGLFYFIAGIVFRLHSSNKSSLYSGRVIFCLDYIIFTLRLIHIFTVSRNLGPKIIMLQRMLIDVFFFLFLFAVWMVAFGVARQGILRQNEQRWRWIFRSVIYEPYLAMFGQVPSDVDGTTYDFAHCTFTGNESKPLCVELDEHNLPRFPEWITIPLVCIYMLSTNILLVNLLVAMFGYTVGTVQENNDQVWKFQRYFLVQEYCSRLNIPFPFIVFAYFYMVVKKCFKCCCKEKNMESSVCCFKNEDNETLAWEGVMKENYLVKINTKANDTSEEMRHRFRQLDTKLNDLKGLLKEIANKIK

| SMILES | IC50 [µM] | IC50 [1] [µM] |
| --- | --- | --- |
| O=C(N[C@]1(c2ccc(OC(F)(F)F)cc2)CCOc2cccnc21)c1ccc2[nH]cnc2c1 [Example 237, (S)-N-(4-(4-(trifluoromethoxy)phenyl)-3,4-dihydro-2H-pyrano[3,2-b]pyridin-4-yl)1lH-benzo[d]imidazole-5-carboxamide formate] | 0.00407 |  |
| O=C(N[C@]1(c2ccc(OC(F)(F)F)cc2)CCOc2cccnc21)c1ccc2cc[nH]c(=O)c2c1 [Example 271, (S)-1-oxo-N-(4-(4-(trifluoromethoxy)phenyl)-3,4-dihydro-2H-pyrano[3,2-b]pyridin-4-yl)-1,2-dihydroisoquinoline-7-carboxamide formate] |  | 0.016 |
| O=C(N[C@]1(c2ccc(OC(F)(F)F)c(F)c2)CCOc2cccnc21)c1ccc(C(=O)O)c(O)c1 [Example 298, (S)-4-((4-(3-fluoro-4-(trifluoromethoxy)phenyl)-3,4-dihydro-2H-pyrano[3,2-b]pyridin-4-yl)carbamoyl)-2-hydroxybenzoic acid] |  | 0.023 |
| O=C(N[C@]1(c2ccc(OC(F)(F)F)cc2)CCOc2cccnc21)c1ccc2ccccc2n1 [Example 251, (S)-N-(4-(4-(trifluoromethoxy)phenyl)-3,4-dihydro-2H-pyrano[3,2-b]pyridin-4-yl)quinoline-2-carboxamide formate] |  | 0.056 |
| O=C(N[C@]1(c2ccc(OC(F)(F)F)c(F)c2)CCOc2cccnc21)c1ccc2[nH]c(=O)c(=O)[nH]c2c1 [Example 64, (S)—N-(4-(3-fluoro-4-(trifluoromethoxy)phenyl)-3,4-dihydro-2H-pyrano[3,2-b]pyridin-4-yl)-2,3-dioxo-1,2,3,4-tetrahydroquinoxaline-6-carboxamide] |  | 0.335 |
| CNC(=O)c1ccc(C(=O)N[C@]2(c3ccc(OC(F)(F)F)c(F)c3)CCOc3cccnc32)cc1C [Example 296, (S)—N4-(4-(3-fluoro-4-(trifluoromethoxy)phenyl)-3,4-dihydro-2H-pyrano[3,2-b]pyridin-4-yl)-N1,2-dimethylterephthalamide] |  | 0.008 |
| O=C(N[C@]1(c2ccc(OC(F)(F)F)cc2)CCOc2cccnc21)c1c[nH]c(=O)c2ccccc12 [Example 272, (S)-1-oxo-N-(4-(4-(trifluoromethoxy)phenyl)-3,4-dihydro-2H-pyrano[3,2-b]pyridin-4-yl)-1,2-dihydroisoquinoline-4-carboxamide formate] |  | 0.183 |
| Cc1cc(C(=O)N[C@]2(c3ccc(C(F)(F)F)cc3)CCOc3cccnc32)ccc1C(=O)O [Example 288, (S)-2-methyl-4-((4-(4-(trifluoromethyl)phenyl)-3,4-dihydro-2H-pyrano[3,2-b]pyridin-4-yl)carbamoyl)benzoic acid] |  | 0.045 |
| N#Cc1cncc(-c2ccc([C@@]3(NC(=O)c4ccc(F)cc4)CCOc4cccnc43)cc2)c1 [Example 141, (S)-N-(4-(4-(5-cyanopyridin-3-yl)phenyl)-3,4-dihydro-2H-pyrano[3,2-b]pyridin-4-yl)-4-fluorobenzamide] |  | 0.26 |
| O=C(N[C@]1(c2ccc(OC(F)(F)F)c(F)c2)CCOc2cccnc21)c1ccc(C(=O)C(F)(F)F)cc1 [Example 160, (S)—N-(4-(3-fluoro-4-(trifluoromethoxy)phenyl)-3,4-dihydro-2H-pyrano[3,2-b]pyridin-4-yl)-4-(2,2,2-trifluoroacetyl)benzamide 2,2,2-trifluoroacetate] |  | 0.039 |
| COC(=O)c1cccc(S(=O)(=O)N[C@]2(c3ccc(OC(F)(F)F)c(F)c3)CCOc3cccnc32)c1 [Example 285, (S)-methyl 3-(N-(4-(3-fluoro-4-(trifluoromethoxy)phenyl)-3,4-dihydro-2H-pyrano[3,2-b]pyridin-4-yl)sulfamoyl)benzoate] |  | 0.179 |
| O=C(N[C@]1(c2ccc(-c3cccc(CO)c3)cc2)CCOc2cccnc21)c1ccc(F)cc1 [Example 118, (S)-4-fluoro-N-(4-(3′-(hydroxymethyl)-[1,1′-biphenyl]-4-yl)-3,4-dihydro-2H-pyrano[3,2-b]pyridin-4-yl)benzamide] |  | 2.17 |
| CCc1cc(C(=O)N[C@]2(c3ccc(OC(F)(F)F)c(F)c3)CCOc3cccnc32)ccc1C(=O)OC [Example 191, (S)-methyl 2-ethyl-4-((4-(3-fluoro-4-(trifluoromethoxy)phenyl)-3,4-dihydro-2H-pyrano[3,2-b]pyridin-4-yl)carbamoyl) benzoate] |  | 0.011 |
| O=C(N[C@]1(c2ccc(C(F)(F)F)cc2)CCOc2cccnc21)c1ccncn1 [Example 35, (S)-N-(4-(4-(trifluoromethyl)phenyl)-3,4-dihydro-2H-pyrano[3,2-b]pyridin-4-yl)pyrimidine-4-carboxamide] |  | 0.2 |
| COC(=O)c1ccc(NC(=O)N[C@]2(c3ccc(OC(F)(F)F)c(F)c3)CCOc3cccnc32)cn1 [Example 87, (S)-methyl 5-(3-(4-(3-fluoro-4-(trifluoromethoxy)phenyl)-3,4-dihydro-2H-pyrano[3,2-b]pyridin-4-yl)ureido)picolinate] |  | 0.024 |
| O=C(N[C@]1(c2ccc(-c3cncnc3)cc2)CCOc2cccnc21)c1ccc(F)cc1 [Example 124, (S)-4-fluoro-N-(4-(4-(pyrimidin-5-yl)phenyl)-3,4-dihydro-2H-pyrano[3,2-b]pyridin-4-yl)benzamide] |  | 1.41 |

| SMILES | IC50 [µM] | IC50 [1] [µM] |
| --- | --- | --- |
| O=C(NC1(c2ccccc2)CCOc2cccnc21)c1ccccc1 (centres unmarked) [Example 12, N-(4-phenyl-3,4-dihydro-2H-pyrano[3,2-b]pyridin-4-yl)benzamide] |  | 2.07 |
| O=C(N[C@]1(c2ccc(OC(F)(F)F)cc2)CCOc2cccnc21)c1cccs1 [Example 229, (S)-N-(4-(4-(trifluoromethoxy)phenyl)-3,4-dihydro-2H-pyrano[3,2-b]pyridin-4-yl)thiophene-2-carboxamide fomiate] |  | 0.145 |
| O=C(O)c1ccc(C(=O)N[C@@]2(c3ccc(OC(F)(F)F)c(F)c3)COc3cccnc32)nc1 [Example 161, (R)-6-((3-(3-Fluoro-4-(trifluoromethoxy)phenyl)-2,3-dihydrofuro[3,2-b]pyridin-3-yl)carbamoyl)nicotinic acid] |  | 0.042 |
| O=C(N[C@]1(c2ccc(OC(F)(F)F)cc2)CCOc2cccnc21)c1csc2ccccc12 [Example 268, (S)-N-(4-(4-(trifluoromethoxy)phenyl)-3,4-dihydro-2H-pyrano[3,2-b]pyridin-4-yl) benzo[b]thiophene-3-carboxamide formate] |  | 0.071 |
| O=C(NC1(c2ccc(Cl)c(Cl)c2)CCOc2cccnc21)c1ccc2oc(=O)[nH]c2c1 (centres unmarked) [Example 25, N-(4-(3,4-dichlorophenyl)-3,4-dihydro-2H-pyrano[3,2-b]pyridin-4-yl)-2-oxo-2,3-dihydrobenzo[d]oxazole-5-carboxamide] |  | 0.019 |
| O=C(O)c1ccc(S(=O)(=O)N[C@]2(c3ccc(OC(F)(F)F)c(F)c3)CCOc3cccnc32)cc1 [Example 317, (S)-4-(N-(4-(3-fluoro-4-(trifluoro-methoxy)phenyl)-3,4-dihydro-2H-pyrano[3,2-b]pyridin-4-yl)sulfamoyl) benzoic acid] |  | 3.34 |
| COc1ccc2cc(C(=O)N[C@]3(c4ccc(OC(F)(F)F)cc4)CCOc4cccnc43)cnc2c1 [Example 225, (S)-7-methoxy-N-(4-(4-(trifluoromethoxy)phenyl)-3,4-dihydro-2H-pyrano[3,2-b]pyridin-4-yl)quinoline-3-carboxamide formate] |  | 0.012 |
| COC(=O)c1ccc(C(=O)N[C@]2(c3ccc(OC(F)(F)F)cc3)CCOc3cccnc32)nc1 [Example 176, (S)-methyl 6-((4-(4-(trifluoromethoxy)phenyl)-3,4-dihydro-2H-pyrano[3,2-b]pyridin-4-yl)carbamoyl) nicotinate] |  | 0.054 |
| COC(=O)c1cc(C(=O)N[C@]2(c3ccc(OC(F)(F)F)c(F)c3)CCOc3cccnc32)ccc1OC [Example 182, (S)-methyl 5-((4-(3-fluoro-4-(trifluoromethoxy)phenyl)-3,4-dihydro-2H-pyrano[3,2-b]pyridin-4-yl)carbamoyl)-2-methoxybenzoate] |  | 0.036 |
| O=C(NC1(c2ccc(C(F)(F)F)nc2)CCOc2cccnc21)c1ccccc1 (centres unmarked) [Example 13, N-(4-(6-(trifluoromethyl)pyridin-3-yl)-3,4-dihydro-2H-pyrano[3,2-b]pyridin-4-yl)benzamide] |  | 0.883 |
| N#CCc1ccc([C@@]2(NC(=O)c3ccc(F)cc3)CCOc3cccnc32)cc1 [Example 111, (S)—N-(4-(4-(cyanomethyl)phenyl)-3,4-dihydro-2H-pyrano[3,2-b]pyridin-4-yl)-4-fluorobenzamide] |  | 1.52 |
| O=C(N[C@]1(c2ccc(C(F)(F)F)cc2)CCOc2cccnc21)c1ccn2ccnc2c1 [Example 49, (S)-N-(4-(4-(trifluoromethyl)phenyl)-3,4-dihydro-2H-pyrano[3,2-b]pyridin-4-yl)imidazo[1,2-a]pyridine-7-carboxamide] |  | 0.043 |
| O=C(N[C@]1(c2ccc(C(F)(F)F)cc2)CCOc2cccnc21)c1ccc2cn[nH]c2c1 [Example 34, (S)-N-(4-(4-(trifluoromethyl)phenyl)-3,4-dihydro-2H-pyrano[3,2-b]pyridin-4-yl)-1H-indazole-6-carboxamide] |  | 0.024 |
| Cc1[nH]c(C(=O)N[C@]2(c3ccc(OC(F)(F)F)c(F)c3)CCOc3cccnc32)cc1C(=O)O [Example 301] |  | 0.266 |
| Cn1c(C(=O)N[C@]2(c3ccc(OC(F)(F)F)c(F)c3)CCOc3cccnc32)cnc1Br [Example 180, (S)-2-bromo-N-(4-(3-fluoro-4-(trifluoromethoxy)phenyl)-3,4-dihydro-2H-pyrano[3,2-b]pyridin-4-yl)-1-methyl-1H-imidazole-5-carboxamide] |  | 0.032 |
| CCOc1cnc(-c2ccc([C@@]3(NC(=O)c4ccc(F)cc4)CCOc4cccnc43)cc2)cn1 [Example 117, (S)-N-(4-(4-(5-ethoxypyrazin-2-yl)phenyl)-3,4-dihydro-2H-pyrano[3,2-b]pyridin-4-yl)-4-fluorobenzamide] |  | 0.0737 |
